Experimental data as given in PubChem BioAssay (NCI).
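Cultured in 96-well plates, cells were exposed to test compound for 48 hours across five concentrations. GI50 is the concentration that inhibits growth by half. TGI is the concentration that stops growth completely.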

Tests used:
Assay in all cases: inhibition of tumour cell growth, NCI panel, 48 h
[1] = test system: A498 renal
[2] = test system: HL-60(TB) leukemia
[3] = test system: HT29 colon
[4] = test system: M14 melanoma
[5] = test system: NCI-H23 lung
[6] = test system: NCI-H460 lung
[7] = test system: NCI-H522 lung
[8] = test system: SN12C renal
[9] = test system: HS 578T breast
[10] = test system: MDA-MB-435

[O-][n+]1c2cc(CN3CCOCC3)c(CN3CCOCC3)cc2[n+]([O-])c2c(O)cccc21
TGI [1]: 31.5 µM | TGI [2]: 10.9 µM | TGI [3]: 9.18 µM | TGI [4]: 13.2 µM | TGI [5]: 8.88 µM | TGI [6]: 4.5 µM | TGI [7]: 6.23 µM | TGI [8]: 13 µM

N#CC(C(=O)CCC(=O)Nc1ccc(Cl)c(Cl)c1)c1ccc(Cl)cc1 (stereo unspecified)
TGI [1]: > 100 µM | TGI [2]: > 100 µM | TGI [3]: > 100 µM | TGI [4]: > 100 µM | TGI [5]: > 100 µM | TGI [6]: > 100 µM | TGI [8]: > 100 µM

O=C(NC1C=Nc2ccccc2NC1=O)c1ccccc1Cl (stereo unspecified)
TGI [1]: > 100 µM | TGI [2]: 54.1 µM | TGI [3]: > 100 µM | TGI [4]: > 100 µM | TGI [5]: > 100 µM | TGI [6]: > 100 µM | TGI [7]: > 100 µM | TGI [8]: > 100 µM

O=S(=O)(N/N=C/c1ccc(Cl)cc1Cl)c1ccccc1
TGI [1]: > 100 µM | TGI [2]: 56.9 µM | TGI [3]: > 100 µM | TGI [4]: > 100 µM | TGI [5]: > 100 µM | TGI [8]: > 100 µM

NS(=O)(=O)c1ccc(NC(=O)c2cccc3c(Nc4ccc(S(N)(=O)=O)cc4)c4ccccc4nc23)cc1
TGI [1]: > 100 µM | TGI [2]: 96.8 µM | TGI [3]: 68.4 µM | TGI [4]: > 100 µM | TGI [5]: > 100 µM | TGI [6]: > 100 µM | TGI [7]: 49.9 µM | TGI [8]: > 100 µM

COc1ccc(/C=N\O[Si](C)(C)C(C)(C)C)cc1O[Si](C)(C)C(C)(C)C
TGI [1]: 33.2 µM | TGI [2]: 38.1 µM | TGI [3]: 36.2 µM | TGI [4]: 36.3 µM | TGI [5]: 37.1 µM | TGI [6]: 46.3 µM | TGI [8]: 35.1 µM

O=[N+]([O-])c1cc2c(ccc3occc32)o1
GI50 [1]: 2.21 µM | TGI [1]: 4.58 µM | GI50 [2]: 1.59 µM | TGI [2]: 6.09 µM | GI50 [9]: 4.29 µM | TGI [9]: 70.2 µM | GI50 [3]: 2.45 µM | TGI [3]: 18.8 µM | GI50 [4]: 1.41 µM | TGI [4]: 3 µM | GI50 [5]: 2.69 µM | TGI [5]: 15.6 µM | GI50 [7]: 1.67 µM | TGI [7]: 4.45 µM | GI50 [8]: 2.96 µM | TGI [8]: > 100 µM

COc1cc2c(cc1OCCCCCn1c3ccccc3c3ccccc31)N=C[C@@H]1CCCN1C2=O
GI50 [1]: 1.77 µM | TGI [1]: 3.69 µM | GI50 [2]: 1.72 µM | TGI [2]: 4.38 µM | GI50 [3]: 2.08 µM | TGI [3]: 5.29 µM | GI50 [10]: 1.69 µM | TGI [10]: 3.29 µM | GI50 [5]: 2.69 µM | TGI [5]: 7.04 µM | GI50 [8]: 1.94 µM | TGI [8]: 4.16 µM

O=c1cc(-c2ccc(O)cc2)oc2cc(O)cc(O)c12
TGI [2]: > 100 µM | TGI [4]: > 100 µM | TGI [5]: 46.6 µM | TGI [6]: > 100 µM | TGI [7]: 64.5 µM | TGI [8]: > 100 µM

NS(=O)(=O)c1ccc(N2N=C(c3cccs3)CC2c2ccccc2O)cc1 (stereo unspecified)
GI50 [1]: 0.835 µM | TGI [1]: 4.01 µM | GI50 [9]: 0.845 µM | TGI [9]: 2.7 µM | GI50 [3]: 0.897 µM | TGI [3]: 2.39 µM | GI50 [4]: 1.07 µM | TGI [4]: 4.1 µM | GI50 [10]: 0.704 µM | TGI [10]: 1.8 µM | GI50 [5]: 1.3 µM | TGI [5]: 8.47 µM | GI50 [6]: 1.16 µM | TGI [6]: 4.24 µM | GI50 [7]: 0.644 µM | TGI [7]: 1.51 µM | GI50 [8]: 1.2 µM | TGI [8]: 4.78 µM

CCCCCCCCCCCCCCCCCc1nnc(N)o1
TGI [2]: > 100 µM | TGI [3]: > 100 µM | TGI [4]: > 100 µM | TGI [5]: > 100 µM | TGI [6]: > 100 µM | TGI [7]: > 100 µM | TGI [8]: > 100 µM

O=C(O)c1cc(=O)c2cc(C(=O)c3cccs3)c(Cl)c(Cl)c2o1
TGI [1]: > 100 µM | TGI [2]: > 100 µM | TGI [3]: > 100 µM | TGI [4]: > 100 µM | TGI [5]: > 100 µM | TGI [6]: > 100 µM | TGI [7]: > 100 µM | TGI [8]: > 100 µM

O=C(CC(=O)C1CCOC1=O)C(=O)Nc1ccc(Cl)cc1 (stereo unspecified)
TGI [1]: > 100 µM | TGI [2]: > 100 µM | TGI [3]: > 100 µM | TGI [4]: > 100 µM | TGI [5]: > 100 µM | TGI [6]: > 100 µM | TGI [7]: > 100 µM | TGI [8]: > 100 µM

COc1ccc(C=C2C(=O)NC(=O)NC2=O)cc1OCc1ccccc1
GI50 [9]: 27.1 µg/mL | GI50 [3]: 31.7 µg/mL | GI50 [4]: 28.1 µg/mL | TGI [4]: 82.5 µg/mL | GI50 [10]: 20.2 µg/mL | TGI [10]: 56.1 µg/mL | GI50 [5]: 31.7 µg/mL | GI50 [8]: 47.6 µg/mL

NC(=O)N/N=C(\CCC(=O)N(Cc1ccccc1)Cc1ccccc1)CC(=O)c1ccc(F)cc1
TGI [2]: > 100 µM | TGI [3]: > 100 µM | TGI [4]: > 100 µM | TGI [5]: > 100 µM | TGI [6]: > 100 µM | TGI [8]: > 100 µM

COC(=O)c1nc(N)nc(C(=O)OC)c1C(=O)c1ccccc1
TGI [1]: > 100 µM | TGI [2]: > 100 µM | TGI [3]: > 100 µM | TGI [4]: > 100 µM | TGI [5]: > 100 µM | TGI [6]: > 100 µM | TGI [7]: > 100 µM | TGI [8]: > 100 µM

COC1(Cc2ccccc2)C(=O)c2ccccc2N1C(C)=O (stereo unspecified)
TGI [1]: > 100 µM | TGI [2]: > 100 µM | TGI [3]: > 100 µM | TGI [4]: > 100 µM | TGI [5]: > 100 µM | TGI [6]: > 100 µM | TGI [8]: > 100 µM

COc1ccc(/C(C#N)=C(/N)SCc2ccccc2Cl)cc1
TGI [1]: 42.3 µM | TGI [2]: 63.4 µM | TGI [3]: 33.3 µM | TGI [4]: 27.8 µM | TGI [5]: 34.2 µM | TGI [7]: 27.4 µM | TGI [8]: 91.3 µM

O=c1[nH]nc(-c2ccccc2)c2c(-c3ccccc3)onc12
GI50 [1]: 0.287 µM | TGI [1]: 3.69 µM | GI50 [2]: 0.291 µM | GI50 [9]: 0.255 µM | TGI [9]: 1.37 µM | GI50 [3]: 0.391 µM | TGI [3]: > 100 µM | GI50 [4]: 0.329 µM | TGI [4]: > 100 µM | GI50 [5]: 4.83 µM | TGI [5]: > 100 µM | GI50 [6]: 0.383 µM | TGI [6]: > 62.6 µM | GI50 [7]: 0.648 µM | TGI [7]: 24.3 µM | GI50 [8]: 0.748 µM | TGI [8]: > 100 µM

Cc1cc(Cl)ccc1Nc1nc(C(F)(F)F)ccc1C(=O)Nc1cccc(C(F)(F)F)c1
GI50 [1]: 2.79 µM | TGI [1]: 7.43 µM | GI50 [2]: 2.06 µM | TGI [2]: 4.67 µM | GI50 [9]: 3.95 µM | TGI [9]: 20.2 µM | GI50 [3]: 3.07 µM | TGI [3]: 10.8 µM | GI50 [10]: 3.76 µM | TGI [10]: 16.1 µM | GI50 [5]: 2.85 µM | TGI [5]: 11.1 µM | GI50 [6]: 3.07 µM | TGI [6]: 10.6 µM | GI50 [7]: 3.47 µM | TGI [7]: 13.4 µM | GI50 [8]: 3.23 µM | TGI [8]: 11.6 µM

CC(=O)O[C@H]1CC[C@@]2(C)C(=C/C(=N\[N+](=O)[O-])[C@H]3C4CCC([C@H](C)CCCC(C)C)[C@@]4(C)CCC32)C1 (stereo partly specified)
TGI [1]: > 100 µM | TGI [2]: > 100 µM | TGI [3]: > 100 µM | TGI [4]: > 100 µM | TGI [5]: > 100 µM | TGI [6]: > 100 µM | TGI [7]: > 100 µM | TGI [8]: > 100 µM

Cc1ccccc1NC(=O)c1cc2ccccc2cc1O
GI50 [2]: 2.5 µM | TGI [2]: 7.34 µM | GI50 [9]: 3.12 µM | TGI [9]: 8.38 µM | GI50 [3]: 7.54 µM | TGI [3]: > 100 µM | GI50 [4]: 4.08 µM | TGI [4]: > 100 µM | GI50 [10]: 3.04 µM | TGI [10]: > 100 µM | GI50 [5]: 2.36 µM | TGI [5]: 6.6 µM | GI50 [6]: 2.77 µM | TGI [6]: 7.29 µM | GI50 [7]: 2.62 µM | TGI [7]: 9.39 µM | GI50 [8]: 2.62 µM | TGI [8]: 9.18 µM
